# ChEMBL document CHEMBL5729526, “Substituted imidazolidin-2-one derivatives as PRMT5 inhibitors” (2023)
# Molecular target: Protein arginine N-methyltransferase 5 (Homo sapiens, UniProt O14744)
# Experiment: TR-FRET Assay: Protein arginine methyltransferase 5 (PRMT5) is a type II arginine methyltransferase that catalyze mono- and symmetric […] on arginine residues of histone or non-histone proteins in presence of S-adenosylmethionine (AdoMet or SAM) a cofactor responsible for donating the methyl group. PRMT5 is reported to be overexpressed in several human cancers. To identify compounds that inhibit the PRMT5 and decrease its activity, a TR-FRET based assay has been established. Time-resolved fluorescence resonance energy transfer (TR-FRET) HTS assays are homogeneous proximity assays where the interaction of two dye-labeled binding partners is detected by the energy transfer between a donor and an acceptor dye, and the subsequent light emission by the acceptor dye. PRMT5 catalyzes Histone H4 peptide [1-16] which is biotin tagged to the Lysine amino acid at carboxyl end, in presence of S-adenosyl-1-methionine (SAM) to methylate the peptide. The antibody specific to mono methylated H4 peptide (H4R3) with Ig conjugate binds to the methylated peptide, indirectly binding to the Europium lanthanide. SureLight Allophycocyanin-Streptavidin binds to the biotin tag of the peptide, therefore accepting the energy transferred from the Europium lanthanide. This energy transfer between Europium to SureLight Allophycocyanin is a direct measure of the activity/inhibition of the PRMT5 enzyme. […]
# Protein arginine N-methyltransferase 5, sequence (O14744 whole entry): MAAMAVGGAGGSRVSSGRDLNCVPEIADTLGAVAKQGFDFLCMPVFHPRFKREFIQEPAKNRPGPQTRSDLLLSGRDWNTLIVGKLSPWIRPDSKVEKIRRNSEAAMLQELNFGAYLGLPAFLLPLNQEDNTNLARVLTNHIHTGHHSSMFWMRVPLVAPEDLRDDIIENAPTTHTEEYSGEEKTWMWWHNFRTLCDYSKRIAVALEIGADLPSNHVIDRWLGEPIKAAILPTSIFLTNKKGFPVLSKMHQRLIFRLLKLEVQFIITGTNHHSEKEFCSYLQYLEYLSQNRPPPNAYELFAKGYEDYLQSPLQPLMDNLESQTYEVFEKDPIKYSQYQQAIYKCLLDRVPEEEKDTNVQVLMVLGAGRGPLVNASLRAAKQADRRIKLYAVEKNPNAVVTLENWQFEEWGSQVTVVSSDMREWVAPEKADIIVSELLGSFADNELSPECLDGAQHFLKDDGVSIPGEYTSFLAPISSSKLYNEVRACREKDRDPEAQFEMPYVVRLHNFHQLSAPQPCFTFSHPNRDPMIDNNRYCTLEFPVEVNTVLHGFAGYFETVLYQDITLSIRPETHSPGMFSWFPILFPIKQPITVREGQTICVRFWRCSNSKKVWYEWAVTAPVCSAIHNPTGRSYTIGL
smiles,measurement,value
O=C1N(Cc2cnc(-c3cccnc3)cn2)CCN1C[C@H](O)CN1CCc2ccccc2C1,IC50,53 nM
